Columns and labels:
[1] = molecular target: T1, Proteinase-activated receptor 1 (Homo sapiens, UniProt P25116); assay: Displacement of [3H]haTRAP from PAR-1 receptor in human platelet membranes after 1 hr by scintillation counting analysis; format: cell membranes
T1 sequence (P25116 whole entry): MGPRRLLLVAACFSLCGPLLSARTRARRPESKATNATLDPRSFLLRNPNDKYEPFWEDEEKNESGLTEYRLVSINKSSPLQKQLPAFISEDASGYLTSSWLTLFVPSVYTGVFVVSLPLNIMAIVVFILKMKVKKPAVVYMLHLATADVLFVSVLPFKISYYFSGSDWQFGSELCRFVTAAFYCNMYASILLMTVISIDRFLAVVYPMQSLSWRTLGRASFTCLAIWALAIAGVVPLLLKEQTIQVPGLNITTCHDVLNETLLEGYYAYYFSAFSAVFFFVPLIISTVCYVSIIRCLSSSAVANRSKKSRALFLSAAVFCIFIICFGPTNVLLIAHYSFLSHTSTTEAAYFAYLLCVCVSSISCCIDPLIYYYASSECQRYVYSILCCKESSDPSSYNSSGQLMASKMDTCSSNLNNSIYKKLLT

[2] = AUC (0 to 6 hrs) in rat at 10 mg/kg, po; format: ADME, organism-based; design: time < 6 hr, dose 10 mg/kg, route oral; details: plasma

| SMILES | Ki [1] | AUC(0-t) at 6 h [2] |
| --- | --- | --- |
| C[C@H]1OC(=O)[C@@H]2C[C@@H]3C[C@]4(CC[C@H]3[C@H](/C=C/c3ccc(-c5cccc(C(F)(F)F)c5)cn3)[C@H]12)COC(=O)N4 | 21 nM | 4920 ng·h/mL |
| C[C@H]1OC(=O)[C@@H]2C[C@@H]3C[C@]4(CC[C@H]3[C@H](/C=C/c3ccc(-c5cccc(F)c5)cn3)[C@H]12)COC(=O)N4 | 15.5 nM | 3240 ng·h/mL |
| C[C@H]1OC(=O)[C@@H]2C[C@@H]3C[C@]4(CC[C@H]3[C@H](/C=C/c3ccc(-c5ccccc5C#N)cn3)[C@H]12)COC(=O)N4 | 5.1 nM |  |
| C[C@H]1OC(=O)[C@@H]2C[C@@H]3C[C@]4(CC[C@H]3[C@H](/C=C/c3ccc(-c5cccc(C#N)c5)cn3)[C@H]12)COC(=O)N4 | 267 nM |  |
| C[C@H]1OC(=O)[C@@H]2C[C@@H]3C[C@@]4(CC[C@H]3[C@H](/C=C/c3ccc(-c5cccc(C(F)(F)F)c5)cn3)[C@H]12)COC(=O)N4 | 26.5 nM |  |
| C[C@H]1OC(=O)[C@@H]2C[C@@H]3C[C@@]4(CC[C@H]3[C@H](/C=C/c3ccc(-c5cccc(F)c5)cn3)[C@H]12)COC(=O)N4 | 28 nM |  |
| C[C@H]1OC(=O)[C@@H]2C[C@@H]3C[C@@]4(CC[C@H]3[C@H](/C=C/c3ccc(-c5ccccc5C#N)cn3)[C@H]12)COC(=O)N4 | 8.9 nM |  |
| C[C@H]1OC(=O)[C@@H]2C[C@@H]3C[C@@]4(CC[C@H]3[C@H](/C=C/c3ccc(-c5cccc(C#N)c5)cn3)[C@H]12)COC(=O)N4 | 43 nM |  |
| C[C@H]1OC(=O)[C@@H]2C[C@@H]3C[C@@]4(CC[C@H]3[C@H](/C=C/c3ccc(-c5ccccc5F)cn3)[C@H]12)COC(=O)N4 | 25 nM |  |
| C[C@H]1OC(=O)[C@@H]2C[C@@H]3C[C@@]4(CC[C@H]3[C@H](/C=C/c3ccc(-c5ccccn5)cn3)[C@H]12)COC(=O)N4 | 232 nM |  |
| C[C@H]1OC(=O)[C@@H]2C[C@@H]3C[C@@]4(CC[C@H]3[C@H](/C=C/c3ccc(-c5cccc(C(F)(F)F)c5)cn3)[C@H]12)CNC(=O)O4 | 31.5 nM | 3200 ng·h/mL |
| C[C@H]1OC(=O)[C@@H]2C[C@@H]3C[C@]4(CC[C@H]3[C@H](/C=C/c3ccc(-c5cccc(C(F)(F)F)c5)cn3)[C@H]12)CNC(=O)O4 | 392 nM |  |

From ChEMBL document CHEMBL3286306, “Himbacine-derived thrombin receptor antagonists: c7-spirocyclic analogues of vorapaxar” (ACS Med Chem Lett, 2014)
